The text below walks through data of patent US20260218126A1, “METHOD FOR PRODUCING RETINAL TISSUE” (RACTHERA CO., LTD., priority 2023, published 2026).

Holding throughout (assay type): cell-based
One assay has as its system KhES-1_Rx::Venus cells. The experiment in a line: Retinal differentiation induction with or without LDN-193189 addition (GFP and Chx10 expression). Here is the method:
• 1. KhES-1_Rx::Venus cells (KhES-1 cells obtained by knocking a GFP variant called Venus in the locus of a retinal marker Rx) that reached optimal confluence were collected by removing the medium and washed twice with 1 mL of PBS (−). • 2. The cells were incubated at 37° C. and 5% CO2 with 0.5×TrypLE™ Select added at 500 μL/well. • 3. After the 0.5×TrypLE™ Select was removed, PBS (−) was added to the well at 2 mL/well and the cells were peeled off by spraying PBS (−). • 4. The cells were collected into a 15 mL Falcon tube and the cell number was counted. • 5. The required number of cells (5×10^5 cells per dish) was transferred to another tube and centrifuged at 1000 rpm at 20° C. for 5 minutes. • 6. After the supernatant was removed, the cells were suspended with AK02N+Y to provide a cell suspension of 5×10^5 cells/200 μL AK02N+Y. • 7. The iMatrix coating solution within the PDMS sheet was removed with an aspirator and the cell suspension (5×10^5 cells/200 μL AK02N+Y) was added to the circle and incubated at 37° C. for 30 minutes. • 8. The PDMS sheet was removed from the dish with sterilized tweezers. • 9. The cells was cultured at 37° C. and 5% CO2 with 300 μL of AK02 N+Y added to the dish. <Day 1: Medium Replacement with AK02+PS> • 1. The whole medium was replaced with 1 mL of gfCDM (10% KSR) containing LDN-193189 (04-0074-02, ReproCELL Inc.) (hereinafter referred to as LDN). (final concentration of 100 nM LDN). […] Expressions of Chx10, Recoverin, FOXG1, Crx, Tuj1, Zo-1, and Pax6 were evaluated by immunostaining with primary antibodies specific for the respective markers and secondary antibodies suitable for the primary antibodies. The effect of LDN-193189, a BMP signaling inhibitor, on the differentiation induction was evaluated. […] Also, expressions of GFP and Chx10 at Day 18 were evaluated in the patterned and non-patterned cells with or without the LDN-193189 addition. The Chx10 expression was assessed by quantitative PCR (using HPRT1 as an endogenous control) and immunostaining.

The test system of assay [1] is human iPS cells (LPF11 line). The experiment in a line: Duration of action of Y-27632 at cell seeding in patterning culture (LPF11 line). The following applies: for percentage of Chx10-positive areas on the sheet surface: ImageJ. The method, then: The percentage of area covered by a retinal tissue on the region A may be measured by any methods, and for example, can be measured by staining the retinal tissue. For example, it is measured by staining expression of the retinal cell marker described above (such as Chx10) (e.g., by immunostaining with a fluorescently labeled anti-Chx10 antibody). Then, by using imaging software such as ImageJ software (NIH), the ratio of the area of the retinal cell marker-positive region to the area of the region A can be calculated.
(§1) For patterning, a droplet (1 cm in diameter) of a solution containing 0.785 μl of Laminin511-E8 (Nippi. Inc.) in 100 μl of PBS (Laminin51l-E8 concentration of 3.925 ng/μl) was made in the center of the wells of a 12-well plate (Iwaki, for cell culture, culture area 3.8 cm^2) and then incubated at 37° C. or room temperature for 1 to 3 hours to prepare 12-well-plates for patterning culture (Laminin511-E8: 0.5 μg/cm^2).
(§2) First, a 12-well plate for patterning culture prepared by the method described in Example 1 was provided, and subconfluent human iPS cells (LPF11 and DSP-SQ lines) were washed with PBS and dispersed into single cells using TrypLE Select (Life Technologies). The human iPS cells dispersed into single cells were then seeded into one well of the patterning culture plate at a density of 2.0×10^5 cells/cm^2 and cultured under feeder-free condition in Stemfit medium in the presence of Y-27632 (ROCK inhibitor, 10 μM). Then, after 2, 4, 8, 16, or 32 hours culture, the medium was replaced with 2 ml of StemFit medium without Y-27632.
(§3) The patterning culture was then performed as described in Example 1, and on Day 20 of seeding, cells were fixed with 4% paraformaldehyde and bright-field images were obtained with a fluorescence microscope (Keyence). […] The percentage of Chx10-positive areas on the sheet surface was calculated using ImageJ software (NIH) and was 91% for sheets with Y-27632 for 32 hours, compared to 97% or more for sheets with Y-27632 for 16 hours or less (16 hours: 97%, 8 hours: 99%, 4 hours: 98%, 2 hours: 99%).

Assay [2] relates to human iPS cells (DSP-SQ line). As to the kind of experiment: Duration of action of Y-27632 at cell seeding in patterning culture (DSP-SQ line). To be noted: shortening the duration of action of Y-27632; Day 20; immunostaining. Here is the method: as §1
First, a 12-well plate for patterning culture prepared by the method described in Example 1 was provided, and subconfluent human iPS cells (LPF11 and DSP-SQ lines) were washed with PBS and dispersed into single cells using TrypLE Select (Life Technologies). […]
as §3

Assay [3] concerns human iPS cells (LPF11 line). As to the kind of experiment: BMP4 concentration for retinal differentiation by patterning culture (Rx immunostaining, real-time PCR). To be noted: Day 20. The method, then: as §2, with “line)” for “and DSP-SQ lines)”, “Two” for “Then, after 2, 4, 8, 16, or 32”, “later,” for “culture,”, “Y-27632 and patterning culture was performed as described in Example 1.” for “Y-27632.”
On Day 7 of patterning culture, the medium was replaced with serum-free medium (gfCDM+KSR) containing exogenous human recombinant BMP4 (R&D) at a final concentration of 0, 1.5, 3, 6, or 12 nM. Thereafter, half of the medium was replaced with serum-free medium (gfCDM+KSR) without human recombinant BMP4 every 2 to 3 days. […]
Total RNA was then extracted from the retinal tissue using a spin column (QIAGEN, RNeasy Micro kit) by the method described in the kit. The concentration of total RNA was measured by a measuring device (Nanodrop, Thermo scientific) and then reverse transcribed into cDNA using reverse transcriptase and primers (Reverse Transcription Master Mix Kit, Fluidigm). […] The Pre-Run reaction solutions were then injected into a flow-through multi-well (96. 96 Dynamic Array IFC, Fluidigm) using an IFC Controller HX (Fluidigm), and the expression levels of marker genes for neural retina and for by-products other than neural retina were determined by real-time PCR using a multi-sample real-time PCR system (Biomark HD, Fluidigm).
Specifically, the ΔCt value was calculated from the difference between the Ct value of the target gene and the Ct value of GAPDH, the gene used as the internal standard, and the ratio of expression level of each gene was calculated from the difference in ΔCt between samples (ΔΔCt).

`c1ccc2c(-c3cnn4cc(-c5ccc(N6CCNCC6)cc5)cnc34)ccnc2c1` [LDN-193189, 4-[6-(4-Piperazin-1-ylphenyl)pyrazolo[1,5-a]pyrimidin-3-yl]quinoline]: the GFP expression entry is listed as “uniform GFP expression” in the assay on KhES-1_Rx::Venus cells (Day 11, patterning culture, LDN-193189 100 nM from Day 3 to Day 8, compared to cells without LDN-193189) and “increased” in the assay on KhES-1_Rx::Venus cells (Day 18, without patterning culture, with vs without LDN-193189 addition). Besides, the Chx10 expression entry with KhES-1_Rx::Venus cells (Day 18, without patterning culture, quantitative PCR (HPRT1 control) and immunostaining, with vs without LDN-193189 addition) is “increased”.
For the molecule `C[C@@H](N)[C@H]1CC[C@H](C(=O)Nc2ccncc2)CC1` [Y-27632], the “survival of human iPS cells after removing Y-27632” value in assay [1] (Y-27632 10 μM for 2, 4, 8, 16 or 32 hours, LPF11 and DSP-SQ lines) was “survived”. For the same molecule, the “percentage of Chx10-positive areas on the sheet surface” value in assay [1] (Y-27632 10 μM for 2 hours, Day 20) is on record as 99%; in assay [1] (Y-27632 10 μM for 4 hours, Day 20) it was 98%; in assay [1] (Y-27632 10 μM for 8 hours, Day 20), 99%; in assay [1] (Y-27632 10 μM for 16 hours or less, Day 20) it was ≥ 97%; in assay [1] (Y-27632 10 μM for 16 hours, Day 20) it was 97%; in assay [1] (Y-27632 10 μM for 32 hours, Day 20), 91%. In addition, the “holes on the cell sheet surface” value in assay [1] (longer duration of action of Y-27632 (2 to 32 hours), Day 20, bright-field) was “the more holes were created”. In addition, the “Chx10-negative areas on the sheet surface” value in assay [2] was “fewer Chx10-negative areas”.

B1: BMP4: human recombinant BMP4 (R&D), BMP signaling activator (protein, UniProt P12644 293-408, looked up)
Bone morphogenetic protein 4: SPKHHSQRARKKNKNCRRHSLYVDFSDVGWNDWIVAPPGYQAFYCHGDCPFPLADHLNSTNHAIVQTLVNSVNSSIPKACCVPTELSAISMLYLDEYDKVVLKNYQEMVVEGCGCR
On to B1, for which, in assay [3] (BMP4 3 to 12 nM compared to 1.5 nM), the “expression of retinal progenitor cell marker Rx (immunostaining)” value is “more strongly expressed”. Also, the “expression of retinal progenitor cell marker genes Chx10 and Rx (relative mRNA, real-time PCR)” value in assay [3] (BMP4 3 to 12 nM compared to 1.5 nM, GAPDH internal standard) is “higher expression”. In addition, the “expression of Emx2, marker gene for unintended cells (relative mRNA, real-time PCR)” value in assay [3] (BMP4 3 to 12 nM) was “low and suppressed expression”.
